Patent US6063780A, “Method of treating a tumor” (priority 1998, dated 2000)
Where two headings read alike, the source gives them in different places.

Columns and labels:
[1] = test system: FSaIIC Murine Fibrosarcoma; conditions: cited from earlier work
MV-522 Human Lung Tumor [2] = assay: Oxaliplatin, Paclitaxel and Tirapazamine vs MV-522 Human Lung Tumor Xenograft (Example 4); conditions: for % Tumor Growth Inhibition (TGI) / Actual Tumor Wt. (Mean ± SEM) / Weight Change (Day 6) / # of Toxic Deaths / Mice with Complete Shrinkage / Mice with partial Tumor Shrinkage: oxaliplatin 15 mg/kg (MTD), paclitaxel 20 mg/kg, tirapazamine 70 mg/kg, i.p., qdx1; for % Tumor Growth Inhibition (TGI): in the animals without shrinkage; for Actual Tumor Wt. (Mean ± SEM) / Weight Change (Day 6): n=8; for # of Toxic Deaths / Mice with Complete Shrinkage / Mice with partial Tumor Shrinkage: number of 8 mice; for antitumor efficacy (in words): oxaliplatin experiment
Description: (§1) Nude mice weighing approximately 20 g were implanted s.c. by trocar with fragments of MV-522 human lung carcinomas harvested from s.c. growing tumors in nude mice hosts. When tumors were approximately 5 mm×5 mm in size (usually ten days after inoculation), the animals were pair-matched into treatment and control groups. Each group contained 8 tumored mice, each of which was ear-tagged and followed individually throughout the experiment. Tirapazamine was administered three hours prior to oxaliplatin, carboplatin and paclitaxel. The route and schedule for all drugs was i.p., qdxl.
(§2) Mice were weighed twice weekly, and tumor measurements were taken by calipers twice weekly, starting on Day 1. These tumor measurements were converted to mg tumor weight by a well-known formula, L×W^2 /2. The experiment was terminated when control tumors reached a size of 1 gram. Upon termination, all mice were weighed, sacrificed, and their tumors excised. Tumors were weighed, and the mean tumor weight per group was calculated.
(§3) With these agents, the final weight of a given tumor was subtracted from its own weight at the start of treatment on Day 1. This difference divided by the initial tumor weight is the % shrinkage. A mean % tumor shrinkage can be calculated from data from the mice in a group that experienced tumor regressions. If the MV-522 tumor completely disappeared in a mouse, this was considered a complete regression or complete tumor shrinkage.
Paclitaxel and tirapazamine were given at doses of 20 mg/kg and 70 mg/kg respectively (i.p.; qd×1).

MV-522 Human Lung Tumor [3] = assay: Carboplatin, Paclitaxel and Tirapazamine vs MV-522 Human Lung Tumor Xenograft (confirming study, Example 3); conditions: for antitumor efficacy (in words): carboplatin experiment / general statement; for Final Tumor Wt. (Mean ± SEM) / Weight Change (Day 6): n=8; for Mean % Tumor Shrinkage: mice with partial shrinkage
Description: as §1, §2, §3
Paclitaxel and tirapazamine were administered i.p. as a single bolus at doses of 20 mg/kg (2/3 MTD) and 70 mg/kg (MTD) respectively. Carboplatin was given as a single i.p. bolus at doses of 100 mg/kg (MTD) or 50 mg/kg (1/2 MTD).

[4] = test system: mouse SCCVII and other tumors; conditions: multiple injections in conjunction with fractionated irradiation; cited from earlier work
[5] = cited from earlier work
[6] = groups without carboplatin, paclitaxel 20 mg/kg, tirapazamine 70 mg/kg, i.p., qdx1
[7] = groups without carboplatin, paclitaxel 20 mg/kg, tirapazamine 70 mg/kg, i.p., qdx1, number of 8 mice
[8] = carboplatin 50 mg/kg (1/2 MTD), paclitaxel 20 mg/kg, tirapazamine 70 mg/kg where combined, i.p., qdx1, in the animals without shrinkage
[9] = carboplatin 50 mg/kg (1/2 MTD), paclitaxel 20 mg/kg, tirapazamine 70 mg/kg where combined, i.p., qdx1
[10] = carboplatin 50 mg/kg (1/2 MTD), paclitaxel 20 mg/kg, tirapazamine 70 mg/kg where combined, i.p., qdx1, number of 8 mice
[11] = carboplatin 100 mg/kg (MTD), paclitaxel 20 mg/kg, tirapazamine 70 mg/kg where combined, i.p., qdx1, in the animals without shrinkage
[12] = carboplatin 100 mg/kg (MTD), paclitaxel 20 mg/kg, tirapazamine 70 mg/kg where combined, i.p., qdx1
[13] = carboplatin 100 mg/kg (MTD), paclitaxel 20 mg/kg, tirapazamine 70 mg/kg where combined, i.p., qdx1, number of 8 mice

Compound | % Tumor Growth Inhibition (TGI) (MV-522 Human Lung Tumor [2]) [%] | Actual Tumor Wt. (Mean ± SEM) (MV-522 Human Lung Tumor [2]) [mg] | Weight Change (Day 6) (MV-522 Human Lung Tumor [2]) | # of Toxic Deaths (MV-522 Human Lung Tumor [2]) | Mice with Complete Shrinkage (MV-522 Human Lung Tumor [2]) | Mice with partial Tumor Shrinkage (MV-522 Human Lung Tumor [2]) | antitumor efficacy (in words) (MV-522 Human Lung Tumor [2]) | antitumor efficacy (in words) (MV-522 Human Lung Tumor [3]) | Final Tumor Wt. (Mean ± SEM) (MV-522 Human Lung Tumor [3]; [6]) [mg] | Weight Change (Day 6) (MV-522 Human Lung Tumor [3]; [6]) | # of Toxic Deaths (MV-522 Human Lung Tumor [3]; [7]) | % Tumor Growth Inhibition (TGI) (MV-522 Human Lung Tumor [3]; [8]) [%] | Final Tumor Wt. (Mean ± SEM) (MV-522 Human Lung Tumor [3]; [9]) [mg] | Weight Change (Day 6) (MV-522 Human Lung Tumor [3]; [9]) | # of Toxic Deaths (MV-522 Human Lung Tumor [3]; [10]) | Mice with Complete Shrinkage (MV-522 Human Lung Tumor [3]; [10]) | Mice with partial Tumor Shrinkage (MV-522 Human Lung Tumor [3]; [10]) | % Tumor Growth Inhibition (TGI) (MV-522 Human Lung Tumor [3]; [11]) [%] | Final Tumor Wt. (Mean ± SEM) (MV-522 Human Lung Tumor [3]; [12]) [mg] | Weight Change (Day 6) (MV-522 Human Lung Tumor [3]; [12]) [%] | further results
Nc1n[n+]([O-])c2ccccc2[n+]1[O-] [Tirapazamine, 3-amino-1,2,4-benzotriazine 1,4-dioxide] | 2.5 | 769.1 ± 73.0 | -6.9% | 0 | 0 | 0 | not active | not active as a single agent | 835.3 ± 111.2 | -1.7% | 0 | – | – | – | – | – | – | – | – | – | dose enhancement / cytotoxic effect in combination ([1]; given just before single-dose cyclophosphamide, carmustine or melphalan): marked dose enhancement leading to synergistic cytotoxic effects on tumor cells; dose enhancement / cytotoxic effect in combination ([1]; given just prior to single-dose cisplatin): additive effect, except at the highest dose level of cisplatin; % Tumor Growth Inhibition (TGI) (MV-522 Human Lung Tumor [3]; [6]): 5.7%; Mice with Complete Shrinkage (MV-522 Human Lung Tumor [3]; ip, 70 mg/kg): 0; Mice with partial Tumor Shrinkage (MV-522 Human Lung Tumor [3]; ip, 70 mg/kg): 0; tumor cell kill with fractionated irradiation [4]: kills hypoxic cells, increases tumor cell kill while sparing normal tissue
Paclitaxel + Carboplatin | – | – | – | – | – | – | – | even more effective | – | – | – | 49.8 | 474.0 ± 93.5 | +1.7% | 0 | 0 | 0 | 68.8 | 241.4 ± 70.3 | -1.3 | Mean % Tumor Shrinkage (MV-522 Human Lung Tumor [3]; [12]): 53.0%; Mean % Tumor Shrinkage (MV-522 Human Lung Tumor [3]; carboplatin 100 mg/kg (MTD), paclitaxel 20 mg/kg, tirapazamine 70 mg/kg where combined, i.p., qdx1, listed as paclitaxel-high dose carboplatin): 53%; # of Toxic Deaths (MV-522 Human Lung Tumor [3]; [13]): 0; Mice with Complete Shrinkage (MV-522 Human Lung Tumor [3]; [13]): 0; Mice with partial Tumor Shrinkage (MV-522 Human Lung Tumor [3]; [13]): 2; Mice with partial Tumor Shrinkage (MV-522 Human Lung Tumor [3]; carboplatin 100 mg/kg (MTD), paclitaxel 20 mg/kg, tirapazamine 70 mg/kg where combined, i.p., qdx1, number of 8 mice, listed as paclitaxel-high dose carboplatin): two
CC(=O)OC1C(=O)C2(C)C(O)CC3OCC3(OC(C)=O)C2C(OC(=O)c2ccccc2)C2(O)CC(OC(=O)C(O)C(NC(=O)c3ccccc3)c3ccccc3)C(C)=C1C2(C)C [Paclitaxel, 5β,20-Epoxy-1,2α,4,7β,10β,13α-hexahydroxytax-11-en-9-one 4,10-diacetate 2-benzoate 13-ester with (2R, 3S)-N-benzoyl-3-phenylisoserine] | 30.9 | 570.5 | +0.9% | 1 | 0 | 0 | – | – | 552.9 ± 68.6 | +0.4% | 1 | – | – | – | – | – | – | – | – | – | Mice with Complete Shrinkage (MV-522 Human Lung Tumor [3]; [7]): 0; Mice with partial Tumor Shrinkage (MV-522 Human Lung Tumor [3]; [7]): 0; # of Toxic Deaths (MV-522 Human Lung Tumor [3]; groups without carboplatin, paclitaxel 20 mg/kg, tirapazamine 70 mg/kg, i.p., qdx1, number of 8 mice, listed as paclitaxel): one toxic death; solubility in water (in words) ([5]; water): insoluble in water
N.N.O=C([O-])C1(C(=O)[O-])CCC1.[Pt+2] [Carboplatin, platinum, diammine [1,1-cyclobutane-dicarboxylato(2)-0,0']-, (SP-4-2)] | – | – | – | – | – | – | – | – | – | – | – | 22.5 | 698.1 ± 160.5 | -1.7% | 0 | 0 | 0 | 39.7 | 556.5 ± 129.8 | -1.5 | % Tumor Growth Inhibition (TGI) (MV-522 Human Lung Tumor [3]; carboplatin 100 mg/kg (MTD), paclitaxel 20 mg/kg, tirapazamine 70 mg/kg where combined, i.p., qdx1, in the animals without shrinkage, listed as carboplatin): approximately 40%; # of Toxic Deaths (MV-522 Human Lung Tumor [3]; [13]): 0; Mice with Complete Shrinkage (MV-522 Human Lung Tumor [3]; [13]): 0; Mice with partial Tumor Shrinkage (MV-522 Human Lung Tumor [3]; [13]): 0; pH of a 1% solution ([5]; 1% solution): 5-7; rate of aquation ([5]; compared with cisplatin): occurs at a slower rate than in the case of cisplatin; solubility in water ([5]; water): approximately 14 mg/mL
O=C1[O][Pt]2([NH][C@@H]3CCCC[C@H]3[NH]2)[O]C1=O (relative stereo) [Oxaliplatin, cis-oxalato(trans-1-1,2-cyclohexanediamine) platinum (II)] | 8.2 | 731.5 ± 62.6 | +5.2% | 0 | 0 | 0 | not active | – | – | – | – | – | – | – | – | – | – | – | – | – | –
